Consider four compounds from article PMC5909127, “Optimization of a “bump-and-hole” approach to allele-selective BET bromodomain inhibition” (Chemical Science, 2018).

In one series the target is BRD2 BD2 WT (Homo sapiens, UniProt P25440). The experiment in a line: competitive AlphaLISA. The format is binding. (In general: Bead proximity is the source of the signal in Alpha formats.)
Another series can be described thus: Plasma Half-life. Particulars: BALB/c, mouse, pH 7.4.
A further series deals with BRD3 BD1 WT (Homo sapiens, UniProt Q15059). Briefly: competitive AlphaLISA. It counts as binding.
Sequence of BRD3 BD1 WT (Q15059 24-144): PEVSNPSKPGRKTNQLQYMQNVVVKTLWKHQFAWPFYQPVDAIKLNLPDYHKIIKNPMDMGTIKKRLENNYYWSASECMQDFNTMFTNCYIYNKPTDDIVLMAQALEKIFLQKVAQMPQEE
For a further series, the target named is BRD2 BD1 L/V (Homo sapiens, UniProt P25440, L110V). The experiment in a line: competitive AlphaLISA. The format is binding.
Sequence of BRD2 BD1 L/V (P25440 71-176 L110V limits assumed): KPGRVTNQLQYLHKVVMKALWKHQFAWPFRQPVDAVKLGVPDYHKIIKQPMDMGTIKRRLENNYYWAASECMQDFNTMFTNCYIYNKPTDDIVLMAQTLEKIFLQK
Series [1] relates to L/V BET bromodomains (BD1 and BD2 of BRD2, BRD3 and BRD4). Briefly: competitive AlphaLISA (Bio-JQ1 displacement). Particulars: for AlphaLISA pIC50 ± SD Δ: L/V minus WT; for AlphaLISA pIC50 ± SD L/V: mean and SD of all somatic bromodomains, active enantiomer concentration. It counts as binding, human.
In another series the target is BRDT BD2 WT (Homo sapiens, UniProt Q58F21). The experiment in a line: competitive AlphaLISA. It counts as binding.
Another series in a line: Intrinsic Clearance. Particulars: mouse liver microsomes. In general terms: Liver microsomes are vesicles of endoplasmic reticulum, rich in cytochrome P450 enzymes.
The target in another series is BRD2 BD1 WT (Homo sapiens, UniProt P25440). The experiment in a line: competitive AlphaLISA. It counts as binding.
Sequence of BRD2 BD1 WT (P25440 71-176): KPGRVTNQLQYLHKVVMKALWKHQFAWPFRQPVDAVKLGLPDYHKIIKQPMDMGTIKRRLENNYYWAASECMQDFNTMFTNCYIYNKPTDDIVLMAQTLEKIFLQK
A further series in a line: in vitro. Particulars: PAMPA, pH 7.4. For orientation: PAMPA measures passive passage across an artificial lipid membrane.
A further series has as its target BRDT BD1 WT (Homo sapiens, UniProt Q58F21). The experiment in a line: competitive AlphaLISA. The format is binding.
The next series has as its target BRD3 BD1 L/V (Homo sapiens, UniProt Q15059, L70V). Briefly: competitive AlphaLISA. It counts as binding.
The next series concerns the target BRDT BD2 L/V (Homo sapiens, UniProt Q58F21, L306V). The experiment in a line: competitive AlphaLISA. The format is binding.
In another series the target is BRD3 BD2 L/V (Homo sapiens, UniProt Q15059, L345V). Briefly: competitive AlphaLISA. It counts as binding.
Sequence of BRD3 BD2 L/V (Q15059 306-416 L345V limits assumed): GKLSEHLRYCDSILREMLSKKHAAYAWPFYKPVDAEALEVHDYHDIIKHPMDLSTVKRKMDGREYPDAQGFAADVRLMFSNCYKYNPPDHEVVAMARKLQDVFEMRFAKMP
The target in series [2] is WT BET bromodomains (BD1 and BD2 of BRD2, BRD3 and BRD4). The experiment in a line: competitive AlphaLISA (Bio-JQ1 displacement). The format is binding, human. Particulars: mean and SD of all somatic bromodomains; active enantiomer concentration.
The target in the next series is BRD3 BD2 WT (Homo sapiens, UniProt Q15059). The experiment in a line: competitive AlphaLISA. The format is binding.
Sequence of BRD3 BD2 WT (Q15059 306-416): as the sequence (Q15059 306-416 L345V limits assumed) above, with V40L counted along it
Another series addresses BRD2 BD2 L/V (Homo sapiens, UniProt P25440, L383V). The experiment in a line: competitive AlphaLISA. It counts as binding.
The next series concerns the target BRD4 BD1 L/V (Homo sapiens, UniProt O60885, L94V). Briefly: competitive AlphaLISA. It counts as binding. Particulars: AlphaLISA pIC50 Value BRD4 BD1 L/V.
A further series deals with BRDT BD1 L/V (Homo sapiens, UniProt Q58F21, L63V). The experiment in a line: competitive AlphaLISA. The format is binding.
A further series has as its target BRD4 BD1 WT (Homo sapiens, UniProt O60885). The experiment in a line: competitive AlphaLISA. It counts as binding. Particulars: AlphaLISA pIC50 Value BRD4 BD1 WT.
The next series concerns the target BRD4 BD2 L/V (Homo sapiens, UniProt O60885, L387V). Briefly: competitive AlphaLISA. It counts as binding.
The target of a further series is BRD4 BD2 WT (Homo sapiens, UniProt O60885). Briefly: competitive AlphaLISA. It counts as binding.

Sequence of BRD3 BD1 L/V (Q15059 24-144 L70V limits assumed): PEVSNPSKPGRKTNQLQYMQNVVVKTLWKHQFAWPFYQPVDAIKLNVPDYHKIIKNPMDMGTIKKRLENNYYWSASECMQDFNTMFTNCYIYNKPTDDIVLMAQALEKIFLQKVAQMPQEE
Sequence of BRD2 BD2 L/V (P25440 344-455 L383V): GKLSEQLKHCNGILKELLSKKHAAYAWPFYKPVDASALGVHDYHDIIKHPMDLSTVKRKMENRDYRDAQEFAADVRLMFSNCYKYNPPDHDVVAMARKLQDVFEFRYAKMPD
Sequence of BRD2 BD2 WT (P25440 344-455): as the sequence (P25440 344-455 L383V) above, with V40L counted along it

A word on the IC50: it is the midpoint of a concentration-inhibition curve. Read a high IC50 as a need for much substance. Usually half-life stands for the time in which the quantity being followed falls by half. A lower half-life goes with fast loss. Broadly, the Papp is the rate of passage across a membrane or cell layer, normalised by area and donor concentration. Take `COC(=O)[C@H](C)[C@@H]1N=C(c2ccc(Cl)cc2)c2cc(OC)ccc2-n2c(C)nnc21` (relative stereo) [Compound 3]: the IC50 at BRD2 BD2 WT was 1000 nM; on BRD3 BD1 WT, 0.251 µM; at BRD2 BD1 L/V, 0.0631 µM; on BRDT BD2 WT it was 1.26 µM; at BRD2 BD1 WT it was 2000 nM; at BRDT BD1 WT it was 2000 nM. Further, the IC50 at BRD3 BD1 L/V is 31.6 nM; on BRDT BD2 L/V, 0.0794 µM; at BRD3 BD2 L/V, 31.6 nM. For the same compound, the half-life at 50 µM in the series “Plasma Half-life” is over 180 min. Further, the “AlphaLISA pIC50 ± SD Δ” value in series [1] is 1.2 ± 0.2. The same compound gave a CL int in “Intrinsic Clearance” of 0.7 ml min^–1 g^–1. Besides, the apparent permeability (Papp) in the series “in vitro” turned out to be 18.5 ×10⁻⁶ cm/s. For the same compound, in series [2], the “AlphaLISA pIC50 ± SD WT” value is 6.2 ± 0.3.
As for `C=CC[C@@H](C(=O)OC)[C@@H]1N=C(c2ccc(Cl)cc2)c2ccc(OC)cc2-n2c(C)nnc21` (relative stereo) [Compound 9], the IC50 was 39800 nM on BRD2 BD2 WT; 50.1 µM at BRD3 BD2 WT; 31.6 µM on BRD3 BD1 WT; 3.98 µM on BRD2 BD1 L/V; 1260 nM at BRD2 BD2 L/V; 3.16 µM at BRD4 BD1 L/V. Also, the 50% inhibitory concentration (IC50) on BRDT BD2 WT is 50.1 µM; on BRD2 BD1 WT, 50100 nM; on BRDT BD1 WT, 63100 nM; at BRD3 BD1 L/V, 1580 nM; on BRDT BD2 L/V, 5.01 µM; on BRDT BD1 L/V it was 6.31 µM. Further, the half-inhibitory concentration (IC50) at BRD4 BD1 WT was 39.8 µM; at BRD3 BD2 L/V it was 1000 nM; on BRD4 BD2 L/V, 3.16 µM; on BRD4 BD2 WT it was 63.1 µM. The half-life at 50 µM in the series “Plasma Half-life” was over 180 min. The “AlphaLISA pIC50 ± SD Δ” value in [1] is reported as 1.3 ± 0.2. Besides, the “AlphaLISA pIC50 ± SD L/V” value in series [1] turned out to be 5.7 ± 0.2. In the series “Intrinsic Clearance”, this compound had a CL int of 9.4 ml min^–1 g^–1. Further, the Papp in “in vitro” stood at 13.6 ×10⁻⁶ cm/s. In series [2], the “AlphaLISA pIC50 ± SD WT” value is recorded as 4.4 ± 0.1.
Take `CCNC(=O)[C@H](CC)[C@@H]1N=C(c2ccc(Cl)cc2)c2ccc(OC)cc2-n2c(C)nnc21` (relative stereo) [Compound 22]: the IC50 was over 100000 nM on BRD2 BD2 WT; over 100 µM at BRD3 BD2 WT; 63.1 µM at BRD3 BD1 WT; 6.31 µM on BRD2 BD1 L/V; 7940 nM on BRD2 BD2 L/V; 7.94 µM on BRD4 BD1 L/V. In addition, the 50% inhibitory concentration (IC50) was over 100 µM at BRDT BD2 WT; over 100000 nM at BRD2 BD1 WT; over 100000 nM on BRDT BD1 WT; 3160 nM on BRD3 BD1 L/V; 20 µM on BRDT BD2 L/V; 20 µM at BRDT BD1 L/V. The 50% inhibitory concentration (IC50) is 63.1 µM at BRD4 BD1 WT, 3980 nM on BRD3 BD2 L/V and over 100 µM at BRD4 BD2 WT. Moreover, the half-life at 50 µM in “Plasma Half-life” was over 180 min. In addition, in series [1], the “AlphaLISA pIC50 ± SD Δ” value is recorded as over 1.2. Moreover, the “AlphaLISA pIC50 ± SD L/V” value in [1] was found to be 5.2 ± 0.2. Besides, the CL int in the series “Intrinsic Clearance” is listed as 2.1 ml min^–1 g^–1. The compound also came in with an apparent permeability (Papp) in the series “in vitro” of 5.9 ×10⁻⁶ cm/s. Moreover, the “AlphaLISA pIC50 ± SD WT” value in series [2] is under 4.0.
Turning to `COC(=O)CC1N=C(c2ccc(Cl)cc2)c2cc(OC)ccc2-n2c(C)nnc21` (centres unmarked) [Compound 1], the half-maximal inhibitory concentration (IC50) on BRD2 BD2 WT is 316 nM; at BRD3 BD1 WT it was 0.126 µM; on BRD2 BD2 L/V, 316 nM; on BRD2 BD1 WT it was 316 nM; on BRDT BD1 WT, 501 nM; at BRD3 BD1 L/V it was 63.1 nM. The half-maximal inhibitory concentration (IC50) at BRDT BD2 L/V is 1 µM; at BRD3 BD2 L/V, 501 nM. The compound also registered a half-life at 50 µM in “Plasma Half-life” of 54 min. Also, in “Intrinsic Clearance”, the CL int is listed as under 0.5 ml min^–1 g^–1. The same compound showed a Papp in “in vitro” of 14.9 ×10⁻⁶ cm/s.
